Starred links: 1 amine or outer side, 2 acyl side, 3 side chain; linkers in the order of their positions; H or OH if unused. Positions of bridges follow the written chain, without caps; N, C: chain ends. Non-standard residues stand in square brackets, D forms with d. Residues, ends and D or L forms follow the SMILES beside them. dTyr(3,5-I2) = N[C@H](Cc1cc(I)c(O)c(I)c1)C(=O)O; dTyr(3-I) = N[C@H](Cc1ccc(O)c(I)c1)C(=O)O; X1 = O=C(CC1(S[*:2])CCCCC1)[*:1]
Molecular target: vasopressin receptors (V2 -receptors) (Sus scrofa, UniProt P32307)
Sequence (P32307 whole entry): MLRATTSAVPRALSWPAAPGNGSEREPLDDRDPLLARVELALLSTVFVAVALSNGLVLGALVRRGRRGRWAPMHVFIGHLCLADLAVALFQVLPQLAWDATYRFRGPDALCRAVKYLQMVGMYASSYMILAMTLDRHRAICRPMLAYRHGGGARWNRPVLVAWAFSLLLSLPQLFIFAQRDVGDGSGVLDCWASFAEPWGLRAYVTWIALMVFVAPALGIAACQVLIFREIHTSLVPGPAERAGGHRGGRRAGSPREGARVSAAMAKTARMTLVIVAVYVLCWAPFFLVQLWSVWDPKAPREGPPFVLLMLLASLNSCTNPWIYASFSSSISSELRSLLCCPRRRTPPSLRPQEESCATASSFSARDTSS
Test: biochemical
From the text: These values represent total and non-specific binding, respectively.

SMILES | Kb
CC(C)[C@@H]1NC(=O)[C@H](Cc2ccccc2)NC(=O)[C@@H](Cc2ccc(O)cc2)NC(=O)CC2(CCCCC2)SSC[C@@H](C(=O)N2CCC[C@H]2C(=O)N[C@@H](CCCN=C(N)N)C(=O)NCC(N)=O)NC(=O)[C@H](CC(N)=O)NC1=O [A, [Pmp^1, D-Tyr^2, Val^4]AVP, reference compound] ([dY]FVNCPRG-NH2; linker N-5 via X1) | 100 nM
CC(C)[C@@H]1NC(=O)[C@H](Cc2ccccc2)NC(=O)[C@@H](Cc2ccc(O)c(I)c2)NC(=O)CC2(CCCCC2)SSC[C@@H](C(=O)N2CCC[C@H]2C(=O)N[C@@H](CCCNC(=N)N)C(=O)NCC(N)=O)NC(=O)[C@H](CC(N)=O)NC1=O [B, [Pmp^1, D-Tyr(I)^2, Val^4]AVP] ([dTyr(3-I)]FVNCPRG-NH2; linker N-5 via X1) | 120 nM
CC(C)[C@@H]1NC(=O)[C@H](Cc2ccccc2)NC(=O)[C@@H](Cc2cc(I)c(O)c(I)c2)NC(=O)CC2(CCCCC2)SSC[C@@H](C(=O)N2CCC[C@H]2C(=O)N[C@@H](CCCNC(=N)N)C(=O)NCC(N)=O)NC(=O)[C@H](CC(N)=O)NC1=O [C, [Pmp^1, D-Tyr(I2)^2, Val^4]AVP] ([dTyr(3,5-I2)]FVNCPRG-NH2; linker N-5 via X1) | 2400 nM

From patent US4469680A, “Iodinated vasopressin antagonists” (SmithKline Beckman Corporation, priority 1983, dated 1984)
